Source: patent US20250262305A1 (Aegis Therapeutics, LLC, priority 2018, published 2025)
Like-named read-outs stand apart in the source and are kept apart here.

Assays:
[1] = male, human, in vivo
Protocol: In the Screening Period, subjects underwent screening within 28 days prior to entering into the study.
(§1) Study Drugs and Administration.
(§2) Each 100 μL spray was administered to the left nostril via a commercially-available multiple dose nasal spray device marketed by Aptar Pharma. Priming of the device (activation 5 times) was done in a hood or priming box within 30 minutes prior to dosing the subject.
Participants. […] Plasma samples from all subjects that complete the study were analyzed.
(§3) Pharmacokinetic Analysis.

[2] = clinical; conditions: human, in vivo, pH 4, tmax
Protocol: Study Design. A Phase 1, open-label, randomized, single-dose, two-treatment, crossover study was carried out that consisted of a screening period, baseline period, and an open-label treatment period. In the screening period, subjects underwent screening within 21 days prior to entering into the open-label treatment phase of the study.
Safety assessments were performed on each study day and subjects released after discharge assessments on Day 1. Subjects were followed for 6 hours after the administration of the last dose of study drug.
Plasma samples from all subjects that completed two periods of the study were analyzed. […] Actual sampling times were recorded.
as §1, §2, §3
Non-GCP pharmacokinetic analysis was performed using WinNonlin version 7.0. […] Baseline corrected Cmax was calculated from the uncorrected Cmax−PreDose concentration. Baseline corrected AUC0-t was calculated from the uncorrected AUC0-t−PreDose concentration×tlast. […] The point estimates and confidence limits will be exponentiated back to the original scale.

[3] = cited from earlier work; for Cbaseline: Mean ± SD
[4] = single 0.3 mg doses, intranasal and intramuscular; healthy volunteers

Question: Which rate of absorption [1] does the source give for `CNC[C@H](O)c1ccc(O)c(O)c1` [Epinephrine, (R)-4-(1-Hydroxy-2-(methylamino)ethyl)benzene-1,2-diol] here?
Answer: Its rate of absorption is “rapid, IM-injection-like rate of absorption in the first 20 minutes”.

Question: What about the Tmax [2] of the same compound?
Answer: Its Tmax is 53 min.

Question: What about the Cbaseline ([3]; Intramuscular (IM) 0.3 mg) of the same compound?
Answer: The Cbaseline was 35 ± 23 pg/mL.

Question: And the Cbaseline ([3]; Intranasal (IN) 5 mg)?
Answer: Its Cbaseline is 8 ± 6 pg/mL.

Question: And the “clearance from the plasma” value ([3]; Srisawat's 5 mg intranasal formulation (FIG. 2))?
Answer: The value was “cleared from the plasma almost entirely in about two hours”.

Question: What about the “blood level of epinephrine” value ([3]; intranasal dose level of 2.5 mg and below) of the same compound?
Answer: The value was “no blood level of epinephrine”.

Question: What about the “systemic absorption of epinephrine via the IN route” value ([3]; intranasal, dose range of Srisawat (FIG. 1)) of the same compound?
Answer: Its value is “significant systemic absorption of epinephrine via the IN route was observed only at 5 mg”.

Question: And the adverse events [4]?
Answer: Its adverse events is “no related adverse events reported”.
